For one experiment, the system named is phospho-STAT3 (p-STAT3). Briefly: Western blot for phospho-STAT3 in Meta3 and Meta4 organoids. It is filed as cell-based, mouse. As to conditions: Meta4; 3 days. As to the method:
(§1) FIG. 3C-3D show the Western blot analysis for p-STAT3 and p-ERK in Meta3 and Meta4 organoids (FIG. 3C) and ratios of p-STAT3/total STAT3 and p-ERK/total ERK (FIG. 3D). […] FIG. 3F-3G show phase-contrast images of Meta4 organoids treated with DMSO, Pyr (100 nM), STAT3-IN-1 (1 μM), Stattic (2 μM), and Cryptotanshinone (CPT) (5 μM) for 3 days (FIG. 3F), and quantitation of organoid diameters before and after treatment (FIG. 3G). FIG. 3H-3I show phase-contrast images of Meta4 organoids treated with DMSO, trametinib (Tra), STAT3-IN-1, combination of Tra and STAT3-IN-1, and Pyr, for 3 days (FIG. 3H), and quantitation of organoid diameters before and after treatment (FIG. 3I). FIG. 3J-3K show western blot for p-STAT3 and p-ERK after treatment of Tra, Pyr, and SSTC3 (FIG. 3J) and ratios of p-STAT3/t-STAT3 and p-ERK/t-ERK (FIG. 3K). […] Relative quantification of each gene expression level was normalized to GAPDH gene expression. Shading scale represents the mRNA expression values. FIG. 3M show representative mRNA of Pim-1 and Cyclin-B1 after treatment. Mean±standard deviation. […] Scale bar=500 μM.
(§2) Total proteins were extracted from organoids using radioimmunoprecipitation assay buffer (10 mmol/L Tris-HC, pH 7.2, 150 mmol/L NaCl, 5 mmol/L EDTA, 0.1% sodium dodecyl sulfate, 1.0% Triton X-100, 1% deoxycholate) with protease inhibitors. The protein concentration was measured The Bio-Rad Protein Assay (Bio-Rad Laboratories, Hercules, CA). 5 to 10 μg of total protein was loaded onto 12.5% or 10% sodium dodecyl sulfate/polyacrylamide gel electrophoresis (PAGE) and transferred onto polyvinylidene difluoride membranes (Millipore, Billerica, MA). […] After washes with TBS-T, chemiluminescence was detected with an Amersham Imager 680 instrument (GE Healthcare) after 1 mL of the SuperSignal West Femto Maximum Sensitivity Substrate (ThermoFisher) was applied to the membranes.

Another experiment relates to phospho-ERK (p-ERK). Description: Western blot for phospho-ERK in Meta3 and Meta4 organoids. It is filed as cell-based, mouse. As to conditions: Meta4; 3 days. As to the method:
as §1, §2

The next experiment deals with Meta4 organoids. Description: Meta4 dysplastic organoid growth and cell death (organoid diameter, phase-contrast, H&E, live/dead staining). It is filed as cell-based, mouse. The following applies: pyrvinium 100 nM, SSTC3 0.2-1 μM, STAT3-IN-1 1 μM, Sttatic 2 μM, 3 days; for cell death: trametinib 1 μM. As to the method: (§3) All experiments were repeated at least three times.
(§4) All experiments were performed at least in triplicate.

The subject of a further experiment is Meta3 organoids. Description: Meta3 metaplastic organoid growth and survival (organoid diameter, phase-contrast). It is filed as cell-based, mouse. As to conditions: STAT3-IN-1 1 μM, Sttatic 2 μM, CPT 5 μM, 3 days. As to the method: as §3, §4
For experiment [1], the system named is human pre-cancerous organoid (hPCO) lines. Description: Human precancerous organoid (hPCO) growth and organoid death. The following applies: STAT3 inhibitors; for response (growth and survival): pyrvinium-resistant hPCO-31.
Experimental: To establish human pre-cancer organoids (hPCO), fresh tissues were obtained from the gastric cancer patients who underwent curative gastrectomy at SNUH (IRB No. H-1806-166-954).
Meta3, Meta4, and hPCO organoids were cultured in Matrigel (ECM, Sigma) with Mouse or Human IntestiCult medium (StemCell Technology) supplemented with 1% of penicillin/streptomycin (Gibco) in 48-well plates and medium was replaced every 3 days. The organoids were split every 5-7 days before they formed budding structures.
Mouse or human organoids were split and cultured in the Mouse or Human IntestiCult media for 1-2 days until they formed three-dimensional (3D) spherical structures, then the media was switched to media containing either DMSO vehicle or a certain concentration of each drug and cultured for 3 days. The EVOS M7000 inverted microscope were used to obtain phase contrast images of organoids. All experiments were repeated at least three times.
The number and diameters of mouse and human organoids treated with drugs were manually counted and measured at day 0 and 3 or 6 after treatment from four entire well images of each condition at 4× magnification. For counting live or dead cells, organoids were stained with Calcein AM for live cells and EthD-1 for dead cells 3 days after treatment and the number of EthD-1 positive organoids were manually counted from images taken from three wells of each condition at 4× magnification. All experiments were performed at least in triplicate. The mean values from each condition were compared by Student's paired or unpaired t-test using Graphpad Prism. *P<0.05, **P<0.01, ***P<0.001, ****P<0.0001.
Where [2] appears, read: pyrvinium-sensitive hPCO-2 line.

Each structure is given as a SMILES string.

In the case of `CN(c1ccc(C(F)(F)F)cc1)S(=O)(=O)c1ccc(C(=O)Nc2nc(-c3ccccn3)cs2)cc1` [SSTC3], the “phosphorylation of STAT3^Y705” value with phospho-STAT3 (p-STAT3) is “did not reduce”. In the experiment on phospho-ERK (p-ERK), the p-ERK levels entry is “did not reduce”. For the same molecule, in the experiment with Meta4 organoids, the “organoid size / growth” value is on record as “did not cause any growth suppression or cell death” and the cell death entry is listed as “did not cause any growth suppression or cell death”.
For `COc1cc(/C=C/c2ccc(NC(=O)/C=C/c3cc(OC)c(OC)c(OC)c3)cc2)cc(OC)c1` [STAT3-IN-1], the “survival and growth of organoids” value in the experiment on Meta3 organoids is “no influence on the survival and growth”. Also, the “response (growth and survival)” value in experiment [1] is “did not respond”. In addition, in experiment [1] (setting [2]), the organoid survival result is recorded as “survived until 6 days after the treatment”. Moreover, in the experiment on Meta4 organoids, the “organoid size / growth” value is given as “induced growth arrest” and the cell death entry is “did not lead to cell death”.
For the molecule `O=[N+]([O-])c1ccc2c(c1)S(=O)(=O)C=C2` [Sttatic], the “survival and growth of organoids” value with Meta3 organoids was “no influence on the survival and growth”. In addition, the “response (growth and survival)” value in experiment [1] was “did not respond”. The organoid survival result in experiment [1] (setting [2]) is listed as “survived until 6 days after the treatment”. Besides, the organoid growth entry in experiment [1] (pyrvinium-sensitive hPCO-2 line, 6 days) was “arrested organoid growth”. In addition, in the experiment with Meta4 organoids, the “organoid size / growth” value is reported as “induced growth arrest” and the cell death entry is “did not lead to cell death”.

(Values after patent US20260272908A1 (VANDERBILT UNIVERSITY, priority 2023, published 2026).)
